{"source": "patent US20250084040A1", "about": "“SUBSTITUTED HETEROCYCLES AS c-MYC TARGETING AGENTS” (Northwestern University, priority 2018, published 2025)", "test_system": "NCI 60 cell panel", "assay": "NCI 60 Cell One-Dose Screen", "assay_type": "cell-based, human", "conditions": "1.00E−5 Molar", "experimental": "General Description. As of early 2007 all compounds submitted to the NCI 60 Cell screen are tested initially at a single high dose (10^-5 M) in the full NCI 60 cell panel. Only compounds which satisfy pre-determined threshold inhibition criteria in a minimum number of cell lines will progress to the full 5-dose assay. The threshold inhibition criteria for progression to the 5-dose screen was selected to efficiently capture compounds with anti-proliferative activity based on careful analysis of historical DTP screening data. The threshold criteria may be updated as additional data becomes available.\nInterpretation of One-Dose Data. The One-dose data will be reported as a mean graph of the percent growth of treated cells and will be similar in appearance to mean graphs from the 5-dose assay. The number reported for the One-dose assay is growth relative to the no-drug control, and relative to the time zero number of cells. This allows detection of both growth inhibition (values between 0 and 100) and lethality (values less than 0). This is the same as for the 5-dose assay, described below. For example, a value of 100 means no growth inhibition. A value of 40 would mean 60% growth inhibition. A value of 0 means no net growth over the course of the experiment. A value of −40 would mean 40% lethality. A value of −100 means all cells are dead. Information from the One-dose mean graph is available for COMPARE analysis.\nThe human tumor cell lines of the cancer screening panel are grown in RPMI 1640 medium containing 5% fetal bovine serum and 2 mM L-glutamine. For a typical screening experiment, cells are inoculated into 96 well microtiter plates in 100 μL at plating densities ranging from 5,000 to 40,000 cells/well depending on the doubling time of individual cell lines. After cell inoculation, the microtiter plates are incubated at […], 5% CO2, 95% air and 100% relative humidity for 24 h prior to addition of experimental drugs.\nAfter 24 h, two plates of each cell line are fixed in situ with TCA, to represent a measurement of the cell population for each cell line at the time of drug addition (Tz). Experimental drugs are solubilized in dimethyl sulfoxide at 400-fold the desired final maximum test concentration and stored frozen prior to use. At the time of drug addition, an aliquot of frozen concentrate is thawed and diluted to twice the desired final maximum test concentration with complete medium containing 50 µg/ml gentamicin. Additional four, 10-fold or ½ log serial dilutions are made to provide a total of five drug concentrations plus control. Aliquots of 100 μl of these different drug dilutions are added to the appropriate microtiter wells already containing 100 μl of medium, resulting in the required final drug concentrations.\nFollowing drug addition, the plates are incubated for an additional 48 h at 37° C., 5% CO2, 95% air, and 100% relative humidity. For adherent cells, the assay is terminated by the addition of cold TCA. Cells are fixed in situ by the gentle addition of 50 μl of cold 50% (w/v) TCA (final concentration, 10% TCA) and incubated for 60 minutes at 4° C. The supernatant is discarded, and the plates are washed five times with tap water and air dried. Sulforhodamine B (SRB) solution (100 μl) at 0.4% (w/v) in 1% acetic acid is added to each well, and plates are incubated for 10 minutes at room temperature. After staining, unbound dye is removed by washing five times with 1% acetic acid and the plates are air dried. Bound stain is subsequently solubilized with 10 mM trizma base, and the absorbance is read on an automated plate reader at a wavelength of 515 nm. For suspension cells, the methodology is the same except that the assay is terminated by fixing settled cells at the bottom of the wells by gently adding 50 μl of 80% TCA (final concentration, 16% TCA). […]", "data": [{"smiles": "Cn1nc(C(F)(F)F)cc1-c1ccc(OCc2ccc(Cl)cc2)c(-c2cc(C(F)(F)F)cc(C(F)(F)F)c2)c1O", "note": "[NSC: D-795899/1]", "values": [{"measurement": "Growth Percent", "setting": "786-0 (Renal Cancer)", "value": 2.41, "unit": "%"}, {"measurement": "Growth Percent", "setting": "A498 (Renal Cancer)", "value": "−26.88", "unit": "%"}, {"measurement": "Growth Percent", "setting": "A549/ATCC (Non-Small Cell Lung Cancer)", "value": 10.52, "unit": "%"}, {"measurement": "Growth Percent", "setting": "ACHN (Renal Cancer)", "value": 7.22, "unit": "%"}, {"measurement": "Growth Percent", "setting": "BT-549 (Breast Cancer)", "value": 2.72, "unit": "%"}, {"measurement": "Growth Percent", "setting": "CCRF-CEM (Leukemia)", "value": 6.82, "unit": "%"}, {"measurement": "Growth Percent", "setting": "COLO 205 (Colon Cancer)", "value": "−90.71", "unit": "%"}, {"measurement": "Growth Percent", "setting": "DU-145 (Prostate Cancer)", "value": 20.58, "unit": "%"}, {"measurement": "Growth Percent, Delta", "setting": "Delta of the mean graph", "value": 89.50, "unit": "%"}, {"measurement": "Growth Percent", "setting": "EKVX (Non-Small Cell Lung Cancer)", "value": 7.70, "unit": "%"}, {"measurement": "Growth Percent", "setting": "HCC-2998 (Colon Cancer)", "value": 5.78, "unit": "%"}, {"measurement": "Growth Percent", "setting": "HCT-15 (Colon Cancer)", "value": 7.50, "unit": "%"}, {"measurement": "Growth Percent", "setting": "HCT-116 (Colon Cancer)", "value": 3.65, "unit": "%"}, {"measurement": "Growth Percent", "setting": "HL-60(TB) (Leukemia)", "value": "−39.89", "unit": "%"}, {"measurement": "Growth Percent", "setting": "HOP-62 (Non-Small Cell Lung Cancer)", "value": "−9.87", "unit": "%"}, {"measurement": "Growth Percent", "setting": "HOP-92 (Non-Small Cell Lung Cancer)", "value": "−20.08", "unit": "%"}, {"measurement": "Growth Percent", "setting": "HS 578T (Breast Cancer)", "value": 4.39, "unit": "%"}, {"measurement": "Growth Percent", "setting": "HT29 (Colon Cancer)", "value": 3.77, "unit": "%"}, {"measurement": "Growth Percent", "setting": "IGROV1 (Ovarian Cancer)", "value": 31.40, "unit": "%"}, {"measurement": "Growth Percent", "setting": "K-562 (Leukemia)", "value": 1.63, "unit": "%"}, {"measurement": "Growth Percent", "setting": "KM12 (Colon Cancer)", "value": 5.04, "unit": "%"}, {"measurement": "Growth Percent", "setting": "LOX IMVI (Melanoma)", "value": 6.23, "unit": "%"}, {"measurement": "Growth Percent", "setting": "M14 (Melanoma)", "value": 6.30, "unit": "%"}, {"measurement": "Growth Percent", "setting": "MALME-3M (Melanoma)", "value": "−15.91", "unit": "%"}, {"measurement": "Growth Percent", "setting": "MCF7 (Breast Cancer)", "value": 3.01, "unit": "%"}, {"measurement": "Growth Percent", "setting": "MDA-MB-231/ATCC (Breast Cancer)", "value": "−31.51", "unit": "%"}, {"measurement": "Growth Percent", "setting": "MDA-MB-435 (Melanoma)", "value": 11.38, "unit": "%"}, {"measurement": "Growth Percent", "setting": "MDA-MB-468 (Breast Cancer)", "value": -5.00, "unit": "%"}, {"measurement": "Growth Percent", "setting": "MOLT-4 (Leukemia)", "value": "−11.7", "unit": "%"}, {"measurement": "Growth Percent, Mean", "setting": "Mean over the cell panel", "value": -1.21, "unit": "%"}, {"measurement": "Growth Percent", "setting": "NCI-H23 (Non-Small Cell Lung Cancer)", "value": 0.56, "unit": "%"}, {"measurement": "Growth Percent", "setting": "NCI-H226 (Non-Small Cell Lung Cancer)", "value": 13.90, "unit": "%"}, {"measurement": "Growth Percent", "setting": "NCI-H322M (Non-Small Cell Lung Cancer)", "value": 5.67, "unit": "%"}, {"measurement": "Growth Percent", "setting": "NCI-H460 (Non-Small Cell Lung Cancer)", "value": "−10.44", "unit": "%"}, {"measurement": "Growth Percent", "setting": "NCI-H522 (Non-Small Cell Lung Cancer)", "value": "−9.19", "unit": "%"}, {"measurement": "Growth Percent", "setting": "NCI/ADR-RES (Ovarian Cancer)", "value": 1.98, "unit": "%"}, {"measurement": "Growth Percent", "setting": "OVCAR-3 (Ovarian Cancer)", "value": 7.02, "unit": "%"}, {"measurement": "Growth Percent", "setting": "OVCAR-4 (Ovarian Cancer)", "value": 20.71, "unit": "%"}, {"measurement": "Growth Percent", "setting": "OVCAR-5 (Ovarian Cancer)", "value": 29.10, "unit": "%"}, {"measurement": "Growth Percent", "setting": "OVCAR-8 (Ovarian Cancer)", "value": 8.36, "unit": "%"}, {"measurement": "Growth Percent", "setting": "PC-3 (Prostate Cancer)", "value": 10.73, "unit": "%"}, {"measurement": "Growth Percent", "setting": "RPMI-8226 (Leukemia)", "value": "−14.54", "unit": "%"}, {"measurement": "Growth Percent", "setting": "RXF 393 (Renal Cancer)", "value": "−14.51", "unit": "%"}, {"measurement": "Growth Percent, Range", "setting": "Range over the cell panel", "value": 122.11, "unit": "%"}, {"measurement": "Growth Percent", "setting": "SF-268 (CNS Cancer)", "value": 16.59, "unit": "%"}, {"measurement": "Growth Percent", "setting": "SF-295 (CNS Cancer)", "value": "−22.60", "unit": "%"}, {"measurement": "Growth Percent", "setting": "SF-539 (CNS Cancer)", "value": 2.13, "unit": "%"}, {"measurement": "Growth Percent", "setting": "SK-MEL-2 (Melanoma)", "value": "−33.97", "unit": "%"}, {"measurement": "Growth Percent", "setting": "SK-MEL-28 (Melanoma)", "value": 28.00, "unit": "%"}, {"measurement": "Growth Percent", "setting": "SK-MIEL-5 (Melanoma)", "value": "−36.59", "unit": "%"}, {"measurement": "Growth Percent", "setting": "SK-OV-3 (Ovarian Cancer)", "value": "−13.54", "unit": "%"}, {"measurement": "Growth Percent", "setting": "SN12C (Renal Cancer)", "value": 7.93, "unit": "%"}, {"measurement": "Growth Percent", "setting": "SNB-19 (CNS Cancer)", "value": 22.58, "unit": "%"}, {"measurement": "Growth Percent", "setting": "SNB-75 (CNS Cancer)", "value": 4.92, "unit": "%"}, {"measurement": "Growth Percent", "setting": "SR (Leukemia)", "value": "−4.24", "unit": "%"}, {"measurement": "Growth Percent", "setting": "SW-620 (Colon Cancer)", "value": 13.14, "unit": "%"}, {"measurement": "Growth Percent", "setting": "T-47D (Breast Cancer)", "value": "−11.64", "unit": "%"}, {"measurement": "Growth Percent", "setting": "TK-10 (Renal Cancer)", "value": 9.29, "unit": "%"}, {"measurement": "Growth Percent", "setting": "U251 (CNS Cancer)", "value": 6.17, "unit": "%"}, {"measurement": "Growth Percent", "setting": "UACC-62 (Melanoma)", "value": 3.02, "unit": "%"}, {"measurement": "Growth Percent", "setting": "UACC-257 (Melanoma)", "value": "−7.16", "unit": "%"}, {"measurement": "Growth Percent", "setting": "UO-31 (Renal Cancer)", "value": "−1.27", "unit": "%"}]}]}
